The target in data set [1] is T1, SYK(S550F)-NL (Homo sapiens, UniProt P43405, S550F).
T1 construct: host or cells: HEK293
The experiment in a line: NanoBRET cellular target engagement assay in intact live HEK293 cells, SYK(S550F)-NL. It is filed as cell-based. On the technique in general: BRET reads energy transfer from a luciferase to a nearby fluorophore.
Protocol: (§1) NL orientations used in the respective assays are indicated. […] Plates were incubated for 25 min at room temperature if digitonin was added or for 2 h at 37°C in 5% CO2 for the intact cell NanoBRET assay. […] For intact live cells in a 96-well plate, the 3X stock solution was prepared with 30 μL of NanoBRET NanoGlo substrate, 10 μL of extracellular NanoLuc inhibitor, and 4,960 μL of Opti-MEM without phenol red. For digitonin permeabilized live cells in a 96-well plate, the 3X stock solution was prepared with 30 μL of NanoBRET NanoGlo substrate and 4,970 μL of Opti-MEM without phenol red. Raw milliBRET units (mBU) were read on a GloMax Discover system (Promega) with a donor emission wavelength of 450 nm and an acceptor emission wavelength of 600 nm. mBU were calculated by dividing the acceptor emission values (600 nm) by the donor emission values (450 nm). For NanoBRET studies with SYK, background corrected mBU were calculated by subtracting the no tracer wells from the tracer-containing wells and multiplying by 1,000.
(§2) MRL-SYKi was used to compete away the NanoBRET signal produced with tracer 8. […] Tracer 8 was prepared in DMSO and DMEM without phenol red in 11-point dose-response format with 3 μM as the top concentration, with a final assay plate concentration of 1% DMSO. 10X stock solutions of MRL-SYKi were prepared from 10 mM DMSO stock solution with room temperature Opti-MEM without phenol red, for final assay plate concentrations of 10 μM. 10 μL of 8 (10X) was added to each well, with the exception of the no tracer control wells, and 10 μL of 10X solutions of MRL-SYKi was added to wells for tracer competition. One biological replicate was plotted in GraphPad Prism with [inhibitor] vs response (three parameters).
(§3) MRL-SYKi was tested in 11-point dose–response format with a top concentration of 10 μM. […] The final assay plate concentrations included 1% DMSO. 5 μL of 8 (20X) was added to each well, except the no tracer control wells, and 10 μL of 10X threefold diluted solutions of MRL-SYKi was added to wells. Two biological replicates were plotted in GraphPad Prism with log[inhibitor] vs response (three parameters) with the error bars indicating standard deviation.
(§4) Compounds were tested in 11-point dose–response format with a top concentration of 10 μM. Data are reported as IC50 ± standard error mean (SEM). One biological replicate was plotted in GraphPad Prism with log[inhibitor] vs response (three parameters), the three IC50’s were averaged and the SEM was calculated.

Data set [2] concerns the target T2, SYK(P342T)-NL (Homo sapiens, UniProt P43405, P342T).
T2 construct: host or cells: HEK293
The experiment in a line: NanoBRET cellular target engagement assay in intact live HEK293 cells, SYK(P342T)-NL. It is filed as cell-based.
Protocol: as §1, §2, §3, §4

The subject of the next data set is JAK1. The conditions noted are these: ref Ma et al., 2015; Guo et al., 2017; cited from earlier work.
The target in the next data set is TNK1. The following applies: only off-target kinase bound; ref Sharman et al., 2015; Cooper et al., 2023; cited from earlier work.
In another data set the target is T3, SYK (Homo sapiens, UniProt P43405).
T3 construct: purchased Eurofins DiscoverX (contract assay service)
The experiment in a line: Eurofins DiscoverX SYK enzymatic radiometric assay. It counts as biochemical.

In a further data set the target is T4, SYK(WT)-NL (Homo sapiens, UniProt P43405).
T4 construct: SYK tracers enable BRET with full-length SYK(WT) after digitonin permeabilization; host or cells: HEK293
The experiment in a line: NanoBRET assay in digitonin permeabilized HEK293 cells, SYK(WT)-NL. It counts as cell-based.

Data set [3] has as its target T5, SYK(S550Y)-NL (Homo sapiens, UniProt P43405, S550Y).
T5 construct: host or cells: HEK293
The experiment in a line: NanoBRET assay in digitonin permeabilized HEK293 cells, SYK(S550Y)-NL. It counts as cell-based. The conditions noted are these: relative to MRL-SYKi (20 μM) treated cells, single experiment, read-out: EC50 of tracer, SYK(variant)-NL S550Y.
Protocol: (§5) We performed NanoBRET tracer optimization to determine if the SYK tracers could effectively generate a BRET signal. […] To enable the NanoBRET assay using tracer 8 with cells permeabilized by digitonin, a tracer dose–response study was performed for each SYK(GoF) variant and SYK(WT) (Figure 3A), followed by tracer titration experiments (Figure 3B; Supplementary Figure S3). […] Initially, we determined the EC50 of tracer 8 for each SYK(GoF) variant and SYK(WT). […] Plates were incubated for 25 min at room temperature if digitonin was added or for 2 h at 37°C in 5% CO2 for the intact cell NanoBRET assay. […] For intact live cells in a 96-well plate, the 3X stock solution was prepared with 30 μL of NanoBRET NanoGlo substrate, 10 μL of extracellular NanoLuc inhibitor, and 4,960 μL of Opti-MEM without phenol red. […] Raw milliBRET units (mBU) were read on a GloMax Discover system (Promega) with a donor emission wavelength of 450 nm and an acceptor emission wavelength of 600 nm. mBU were calculated by dividing the acceptor emission values (600 nm) by the donor emission values (450 nm). For NanoBRET studies with SYK, background corrected mBU were calculated by subtracting the no tracer wells from the tracer-containing wells and multiplying by 1,000. […]

Data set [4] deals with T1, SYK(S550F)-NL. The experiment in a line: NanoBRET assay in digitonin permeabilized HEK293 cells, SYK(S550F)-NL. The following applies: relative to MRL-SYKi (20 μM) treated cells, single experiment, read-out: EC50 of tracer, SYK(variant)-NL S550F. It counts as cell-based.
Protocol: as §5
Data set [5] concerns the target T2, SYK(P342T)-NL. The data set is described as follows: NanoBRET assay in digitonin permeabilized HEK293 cells, SYK(P342T)-NL. It counts as cell-based. The following applies: relative to MRL-SYKi (20 μM) treated cells, single experiment, read-out: EC50 of tracer, SYK(variant)-NL P342T.
Protocol: as §5
For a further data set, the target named is T6, SYK(A353T)-NL (Homo sapiens, UniProt P43405, A353T).
T6 construct: host or cells: HEK293
The experiment in a line: NanoBRET assay in digitonin permeabilized HEK293 cells, SYK(A353T)-NL. It is filed as cell-based. The following applies: relative to MRL-SYKi (20 μM) treated cells, single experiment, read-out: EC50 of tracer, SYK(variant)-NL A353T.

The target of the next data set is T7, SYK(M450I)-NL (Homo sapiens, UniProt P43405, M450I).
T7 construct: host or cells: HEK293
The experiment in a line: NanoBRET assay in digitonin permeabilized HEK293 cells, SYK(M450I)-NL. It is filed as cell-based. The following applies: relative to MRL-SYKi (20 μM) treated cells, single experiment, read-out: EC50 of tracer, SYK(variant)-NL M450I.

Data set [6] concerns the target T5, SYK(S550Y)-NL. The experiment in a line: NanoBRET cellular target engagement assay in intact live HEK293 cells, SYK(S550Y)-NL. It is filed as cell-based. The conditions noted are these: intact cells, ± 10 μM MRL-SYKi, single experiment; read-out: cellular EC50 of the tracer, SYK(S550Y)-NL.
Protocol: as §1, §2, §3, §4
In a further data set the target is T8, SYK(WT) (Homo sapiens, UniProt P43405).
T8 construct: Full-length human SYK(WT) DNA was custom synthesized (GenScript); 6His (N, cleaved yes); GST (N, cleaved yes); made in house; host or cells: Sf9 insect cells (baculovirus, pFastbac1)
The data set is described as follows: PhosphoSens SOX peptide kinase activity assay, SYK(WT). It counts as biochemical. The following applies: dose-response, purified protein. The text has this:
Full-length human SYK(WT) DNA was custom synthesized (GenScript) as a codon optimized form for expression in Sf9 cells. N-terminal 6His and GST tags were introduced, followed by a TEV protease cleavage site, and cloned into pFastbac1. SYK(S550F) and SYK(P342T) were generated by site-directed mutagenesis of SYK(WT) using the NEB Q5 site directed mutagenesis kit. Plasmids were transformed into E. coli DH10Bac for bacmid generation. Recombinant bacmid DNA was used to transfect Sf9 cells to generate viral stocks. For large-scale protein production, 2 L of Sf9 cells at 2 × 10^6 cells/ml were infected with a P2 virus stock and allowed to incubate with shaking for 3 days at 27°C. Harvested cells were lysed in 200 mL lysis buffer containing 50 mM HEPES (pH 7.5), 500 mM NaCl, 10 mM imidazole, 10% glycerol, 1 mM TCEP. […]
SYK kinase activity was evaluated using a continuous kinase assay using a PhosphoSens (AssayQuant) SOX peptide, according to the protocol provided, with modifications. […] Fluorescence readings were taken at 30-s intervals for a duration ranging from 30 min to an hour, using a PheraStar FX device set to kinetic mode, employing an appropriate optics module (FI 350 460). The data was represented as a plot of relative fluorescence over time, deducting the fluorescence of control reactions (which lacked kinase) from the fluorescence recorded after introducing the kinase. […]

Data set [7] in a line: Solubility of tracer in NanoBRET assay medium. It counts as physicochemical. The following applies: dose-response top concentration 3 μM.
Data set [8] has as its system pSYK(Y525/526) in SW480 cells stably expressing SYK(S550Y). The following applies: ref Wang et al. (2021); cited from earlier work.

Molecules are shown by their SMILES.

Protocol for SYK(A353T)-NL: as §5
Protocol for SYK(M450I)-NL: as §5
Protocol for SYK(WT)-NL: We performed NanoBRET tracer optimization to determine if the SYK tracers could effectively generate a BRET signal. […] To enable the NanoBRET assay using tracer 8 with cells permeabilized by digitonin, a tracer dose–response study was performed for each SYK(GoF) variant and SYK(WT) (Figure 3A), followed by tracer titration experiments (Figure 3B; Supplementary Figure S3). […] Initially, we determined the EC50 of tracer 8 for each SYK(GoF) variant and SYK(WT). […] Plates were incubated for 25 min at room temperature if digitonin was added or for 2 h at 37°C in 5% CO2 for the intact cell NanoBRET assay. […] For intact live cells in a 96-well plate, the 3X stock solution was prepared with 30 μL of NanoBRET NanoGlo substrate, 10 μL of extracellular NanoLuc inhibitor, and 4,960 μL of Opti-MEM without phenol red. For digitonin permeabilized live cells in a 96-well plate, the 3X stock solution was prepared with 30 μL of NanoBRET NanoGlo substrate and 4,970 μL of Opti-MEM without phenol red. Raw milliBRET units (mBU) were read on a GloMax Discover system (Promega) with a donor emission wavelength of 450 nm and an acceptor emission wavelength of 600 nm. mBU were calculated by dividing the acceptor emission values (600 nm) by the donor emission values (450 nm). For NanoBRET studies with SYK, background corrected mBU were calculated by subtracting the no tracer wells from the tracer-containing wells and multiplying by 1,000.
HEK293 cells were transfected with constructs of SYK(WT) or SYK(KD) tagged with NL on the C- or N-terminus and SYK GoF variants tagged with NL on the C-terminus. Tracer 8 (20X) was prepared from a 400 μM stock solution in DMSO with tracer dilution buffer (Promega, #N291B) and 20% DMSO, with a final assay plate concentration of 1% DMSO. 5 μL of 8 (20X) was added to each well, with exception of the no tracer control wells, with final plate concentrations of 0.5, 1, and 2 μM. 10 μL of digitonin (Fisher, 10X, 500 μg/mL) was added to specific wells to permeabilize the cells. The 10X digitonin stock was prepared by diluting a 40X DMSO solution of digitonin with room temperature Opti-MEM without phenol red, for a final assay plate concentration of 1% DMSO. SYK inhibitor stock solutions of MRL-SYKi (10X) were prepared from 10 mM DMSO stock solutions with room temperature Opti-MEM without phenol red, for final assay plate concentrations of 10 μM. Plates were incubated for 25 min at room temperature if digitonin was added or for 2 h at 37°C in 5% CO2 for the intact cell NanoBRET assay. Two technical replicates were plotted in a bar chart with the standard deviation represented as error bars on Graphpad Prism.

As for `CCS(=O)(=O)N1CCN(c2ccc(Nc3ncc(C(N)=O)c(NC4CC4)n3)cc2)CC1` [Cerdulatinib], the half-inhibitory concentration (IC50) – broadly, the concentration at which inhibition is half-maximal – was 170 ± 21 nM on SYK(S550F)-NL [1] (intact HEK293 cells, 125 nM tracer 8, average of triplicate ± SEM, read-out: SYK(S550F) IC50); 360 ± 36 nM at SYK(P342T)-NL [2] (intact HEK293 cells, 125 nM tracer 8, average of triplicate ± SEM, read-out: SYK(P342T) IC50); 12 nM with JAK1.

With `c1cn2cc(-c3ccc4cn[nH]c4c3)nc(Nc3ccc(N4CCOCC4)cc3)c2n1` [Entospletinib], the equilibrium dissociation constant (Kd) (usually the concentration at which binding is half-saturated) on TNK1 is less than 100 nM.

For the compound `Cc1cc(Nc2nccc(C)n2)cc(-c2cnc([C@@]3(O)CC[C@H](C(=O)NCCCNC(=O)CCc4ccc5n4[B-](F)(F)[N+]4=C(c6ccc[nH]6)C=CC4=C5)C(C)(C)C3)s2)c1` [Tracer 8], the IC50 against SYK (Km value for ATP, 9-pt dose-response) was 110 nM. In addition, the “decrease in potency compared to the parent inhibitor MRL-SYKi” value on SYK (ratio of enzymatic IC50) came to 3.6 fold. Further, the “BRET signal (background subtracted)” value at SYK(WT)-NL (C-terminal NL fusion, tracer 0.5, 1, 2 μM) was “approximately 15 mBU”. Also, the concentration for a half-maximal effect (EC50) (in general, the concentration needed to bring the measured effect to its halfway point) on SYK(WT)-NL (relative to MRL-SYKi (20 μM) treated cells, single experiment, read-out: EC50 of tracer, SYK(variant)-NL WT) was found to be 39 nM; at SYK(S550Y)-NL [3], 8 nM; at SYK(S550F)-NL [4], 7 nM; at SYK(P342T)-NL [5], 9 nM; on SYK(A353T)-NL it was 24 nM; on SYK(M450I)-NL it was 65 nM. For the same compound, the EC50 turned out to be 159 nM on SYK(S550Y)-NL [6]; 273 nM on SYK(S550F)-NL [1] (intact cells, ± 10 μM MRL-SYKi, single experiment, read-out: cellular EC50 of the tracer, SYK(S550F)-NL); 280 nM at SYK(P342T)-NL [2] (intact cells, ± 10 μM MRL-SYKi, single experiment, read-out: cellular EC50 of the tracer, SYK(P342T)-NL). The “effect on SYK(WT) catalytic activity” value at SYK(WT) is recorded as “inhibits SYK(WT) catalytic activity”. The solubility result in data set [7] is listed as “solubility issues at >3 μM”.

In the case of `COc1cc(Nc2ncc(F)c(Nc3ccc4c(n3)NC(=O)C(C)(C)O4)n2)cc(OC)c1OC` [Tracer R406], in data set [8], the S550Y phosphorylation levels entry is listed as “decrease S550Y phosphorylation levels”.

The values are drawn from article PMC13089524, “Development of SYK NanoBRET cellular target engagement assays for gain–of–function variants” (Frontiers in chemical biology, 2024).
